Laboratory results taken from the CheMixHub ionic liquid set.
± gives the uncertainty stated by the source.

Assay: xn = mol fraction of the nth substance listed

CCC(=O)[O-].C[NH+](C)Cc1ccccc1 + CN(C)C=O
viscosity [mPa·s], 101 kPa
Details	293.15 K	298.15 K	303.15 K	308.15 K	313.15 K	318.15 K	323.15 K	328.15 K
x1 = 0.006283	0.957 ± 0.058	0.915 ± 0.055	0.878 ± 0.053	0.846 ± 0.051	0.817 ± 0.049	0.79 ± 0.048	0.767 ± 0.046	0.745 ± 0.045
x1 = 0.009868	0.965 ± 0.058	0.923 ± 0.056	0.885 ± 0.053	0.852 ± 0.051	0.822 ± 0.05	0.795 ± 0.048	0.771 ± 0.047	0.749 ± 0.045
x1 = 0.01556	0.974 ± 0.059	0.93 ± 0.056	0.893 ± 0.054	0.858 ± 0.052	0.828 ± 0.05	0.8 ± 0.048	0.776 ± 0.047	0.753 ± 0.046
x1 = 0.01941	0.985 ± 0.06	0.94 ± 0.057	0.901 ± 0.054	0.866 ± 0.052	0.834 ± 0.05	0.807 ± 0.049	0.781 ± 0.047	0.758 ± 0.046
x2 = 0.9599	1.036 ± 0.063	0.986 ± 0.06	0.94 ± 0.057	0.9 ± 0.054	0.865 ± 0.052	0.834 ± 0.05	0.806 ± 0.049	0.781 ± 0.047
x2 = 0.9647	1.025 ± 0.062	0.975 ± 0.059	0.932 ± 0.056	0.893 ± 0.054	0.858 ± 0.052	0.828 ± 0.05	0.801 ± 0.048	0.776 ± 0.047
x2 = 0.9703	1.012 ± 0.061	0.964 ± 0.058	0.922 ± 0.056	0.884 ± 0.053	0.851 ± 0.051	0.821 ± 0.05	0.794 ± 0.048	0.77 ± 0.047
x2 = 0.9751	0.997 ± 0.06	0.95 ± 0.057	0.91 ± 0.055	0.873 ± 0.053	0.841 ± 0.051	0.813 ± 0.049	0.787 ± 0.048	0.764 ± 0.046

Cn1cc[n+](CCO)c1.[Cl-] + O
100 kPa
Details	electrical conductivity, 293.15 K [S/m]	electrical conductivity, 298.15 K [S/m]	electrical conductivity, 303.15 K [S/m]	electrical conductivity, 308.15 K [S/m]	electrical conductivity, 313.15 K [S/m]	viscosity, 293.15 K [mPa·s]	viscosity, 298.15 K [mPa·s]	viscosity, 303.15 K [mPa·s]	viscosity, 308.15 K [mPa·s]	viscosity, 313.15 K [mPa·s]
x1 = 3.478e-05	0.0241 ± 0.0077	0.0281 ± 0.0089	0.0319 ± 0.0097	0.036 ± 0.011	0.04 ± 0.012	–	–	–	–	–
x1 = 5.784e-05	0.0382 ± 0.0072	0.0443 ± 0.0084	0.0496 ± 0.0093	0.056 ± 0.01	0.062 ± 0.011	–	–	–	–	–
x1 = 9.73e-05	0.0597 ± 0.0068	0.0693 ± 0.0081	0.0776 ± 0.009	0.0866 ± 0.0097	0.095 ± 0.01	1.015 ± 0.021	0.904 ± 0.019	0.815 ± 0.017	0.738 ± 0.015	0.676 ± 0.014
x1 = 0.0001191	0.0701 ± 0.0057	0.082 ± 0.0067	0.0913 ± 0.0074	0.1 ± 0.0076	0.11 ± 0.0084	–	–	–	–	–
x1 = 0.0001798	0.0949 ± 0.0058	0.111 ± 0.0068	0.123 ± 0.0075	0.133 ± 0.0079	0.146 ± 0.0086	–	–	–	–	–
x1 = 0.0002349	0.117 ± 0.0059	0.136 ± 0.0068	0.151 ± 0.0074	0.163 ± 0.0078	0.178 ± 0.0085	1.023 ± 0.021	0.912 ± 0.019	0.826 ± 0.017	0.75 ± 0.016	0.69 ± 0.014
x1 = 0.0002827	0.133 ± 0.0057	0.154 ± 0.0065	0.171 ± 0.0071	0.183 ± 0.0078	0.2 ± 0.0082	1.025 ± 0.021	0.914 ± 0.019	0.829 ± 0.017	0.753 ± 0.016	0.694 ± 0.015
x1 = 0.0003387	0.15 ± 0.0058	0.173 ± 0.0067	0.192 ± 0.0076	0.209 ± 0.0081	0.224 ± 0.0087	–	–	–	–	–
x1 = 0.0003943	0.165 ± 0.006	0.191 ± 0.0069	0.214 ± 0.0077	0.228 ± 0.0084	0.248 ± 0.0092	1.029 ± 0.021	0.92 ± 0.019	0.835 ± 0.017	0.76 ± 0.016	0.702 ± 0.015
x1 = 0.000458	–	–	–	–	–	1.032 ± 0.021	0.922 ± 0.019	0.838 ± 0.017	0.764 ± 0.016	0.706 ± 0.015
x1 = 0.0005686	–	–	–	–	–	1.036 ± 0.022	0.926 ± 0.019	0.844 ± 0.018	0.77 ± 0.016	0.713 ± 0.015
x1 = 0.0007379	–	–	–	–	–	1.041 ± 0.022	0.933 ± 0.019	0.851 ± 0.018	0.778 ± 0.016	0.722 ± 0.015
x1 = 0.0009513	–	–	–	–	–	1.048 ± 0.022	0.94 ± 0.02	0.86 ± 0.018	0.787 ± 0.016	0.732 ± 0.015
x1 = 0.001272	–	–	–	–	–	1.056 ± 0.022	0.949 ± 0.02	0.872 ± 0.018	0.799 ± 0.017	0.746 ± 0.016
x1 = 0.001562	–	–	–	–	–	1.063 ± 0.022	0.957 ± 0.02	0.882 ± 0.018	0.809 ± 0.017	0.757 ± 0.016

CC[n+]1ccn(C)c1.O=C([O-])C(F)(F)F + OCCN(CCO)CCO
100 kPa
Details	electrical conductivity, 298.15 K [S/m]	electrical conductivity, 313.15 K [S/m]	viscosity, 293.15 K [mPa·s]	viscosity, 298.15 K [mPa·s]	viscosity, 303.15 K [mPa·s]	viscosity, 313.15 K [mPa·s]
x1 = 0.006	0.00085 ± 3e-05	0.0024 ± 0.0001	878 ± 37	581 ± 22	395 ± 14	197.6 ± 5.7
x1 = 0.007	0.00084 ± 3e-05	0.00237 ± 0.0001	871 ± 36	576 ± 22	392 ± 13	196.1 ± 5.6
x2 = 0.393	0.423 ± 0.017	0.76 ± 0.03	76.3 ± 1.9	60 ± 1.4	47.9 ± 1.1	32 ± 0.8
x2 = 0.501	0.287 ± 0.012	0.54 ± 0.02	98.1 ± 2.6	75.4 ± 1.9	59 ± 1.4	38.1 ± 0.9
x2 = 0.6	0.182 ± 0.008	0.37 ± 0.016	135.1 ± 3.8	101 ± 2.7	77 ± 1.9	47.7 ± 1.2
x2 = 0.692	0.109 ± 0.005	0.237 ± 0.01	190.6 ± 5.7	139 ± 3.9	103.5 ± 2.7	61.2 ± 1.5
x2 = 0.778	0.061 ± 0.003	0.143 ± 0.006	279.5 ± 9	198.3 ± 5.8	143.8 ± 3.9	81.2 ± 2
x2 = 0.857	0.0281 ± 0.0012	0.07 ± 0.003	413 ± 15	284.7 ± 9.1	201.3 ± 5.8	108.7 ± 2.7
x2 = 0.931	0.0095 ± 0.0004	0.0268 ± 0.0011	621 ± 24	419 ± 15	289.4 ± 9.1	149.9 ± 4
x2 = 0.966	0.00397 ± 0.00017	0.0113 ± 0.0005	751 ± 30	501 ± 18	344 ± 11	174.6 ± 4.9
x2 = 0.98	0.0025 ± 0.0001	0.007 ± 0.0003	775 ± 32	518 ± 19	354 ± 12	179.3 ± 5

CC(=O)[O-].CCCC[N+](CCCC)(CCCC)CCCC + CCCOCC(C)O
electrical conductivity [S/m], 101 kPa
Details	x1 = 0.006949	x1 = 0.008744	x1 = 0.02598	x1 = 0.03298	x1 = 0.06584	x1 = 0.09163	x1 = 0.1232	x1 = 0.1599	x1 = 0.2312
248.15 K	0.000652 ± 1e-06	0.000811 ± 1e-06	0.00218 ± 1e-05	0.00267 ± 1e-05	0.00439 ± 1e-05	0.00514 ± 1e-05	0.00547 ± 1e-05	0.00531 ± 1e-05	0.0042 ± 1e-05
258.15 K	0.00115 ± 1e-05	0.00143 ± 1e-05	0.00399 ± 1e-05	0.00493 ± 1e-05	0.00847 ± 1e-05	0.01022 ± 1e-05	0.01125 ± 1e-05	0.01128 ± 1e-05	0.00942 ± 1e-05
268.15 K	0.00182 ± 1e-05	0.00229 ± 1e-05	0.00661 ± 1e-05	0.00825 ± 1e-05	0.01473 ± 1e-05	0.01821 ± 1e-05	0.02062 ± 1e-05	0.02133 ± 1e-05	0.01883 ± 1e-05
278.15 K	0.00269 ± 1e-05	0.0034 ± 0.0001	0.01016 ± 1e-05	0.01277 ± 1e-05	0.02353 ± 1e-05	0.02971 ± 1e-05	0.03448 ± 1e-05	0.03666 ± 1e-05	0.03401 ± 1e-05
288.15 K	0.00374 ± 1e-05	0.00478 ± 1e-05	0.01461 ± 1e-05	0.01849 ± 1e-05	0.03502 ± 1e-05	0.04505 ± 1e-05	0.05341 ± 1e-05	0.05816 ± 1e-05	0.05632 ± 1e-05
298.15 K	0.00498 ± 1e-05	0.00635 ± 1e-05	0.01995 ± 1e-05	0.02547 ± 1e-05	0.04947 ± 1e-05	0.06468 ± 1e-05	0.07808 ± 1e-05	0.08671 ± 1e-05	0.08711 ± 1e-05
308.15 K	0.00637 ± 1e-05	0.00816 ± 1e-05	0.02625 ± 1e-05	0.03367 ± 1e-05	0.06676 ± 1e-05	0.08851 ± 1e-05	0.1086 ± 1e-05	0.1227 ± 1e-05	0.1274 ± 1e-05
313.15 K	0.0071 ± 0.0001	0.00913 ± 1e-05	0.02965 ± 1e-05	0.03815 ± 1e-05	0.07641 ± 1e-05	0.1011 ± 1e-05	0.126 ± 1e-05	0.1436 ± 1e-05	0.1513 ± 1e-05

COP(=O)([O-])OC.Cn1cc[n+](C)c1 + CS(C)=O
viscosity [mPa·s], 101 kPa
Details	298.15 K	313.15 K	333.15 K
x1 = 0.1773	7.7 ± 0.3	4.8 ± 0.2	3.1 ± 0.1
x1 = 0.4972	42.7 ± 1.8	22.6 ± 0.9	11.9 ± 0.5
x1 = 0.7978	134.7 ± 6.9	59.6 ± 2.5	26.7 ± 1.1
